# Data published in paper PMC5302928, “[^64Cu]XYIMSR-06: A dual-motif CAIX ligand for PET imaging of clear cell renal cell carcinoma” (Oncotarget, 2016).
# Several values for one entry are separate records, joined by “and”; a condition that tells them apart may be missing. Identical values can stand only once.
# Tests used:
# [1] = test system: CAIX-expressing SK-RC-52 ccRCC tumor xenografts; assay: Biodistribution of [^64Cu]XYIMSR-06 in mice bearing SK-RC-52 xenografts; type: in vivo
# Protocol: Animal experiments were performed in accordance with protocols approved by the Johns Hopkins Animal Care and Use Committee (ACUC). Six-week-old female NOD/SCID mice were purchased from the Animal Resource Core of the Sidney Kimmel Comprehensive Cancer Center of Johns Hopkins and were subcutaneously injected in the upper right flank with 1 × 10^6 SK-RC-52 cells in RPMI 1640 GlutaMAX™ media (Life Technologies, Frederick, MD) supplemented with 1% fetal bovine serum (FBS). Mice were monitored for tumor size and used for PET/CT imaging when the size of the tumor reached 100 mm^3.
# Mice bearing SK-RC-52 xenografts within the upper right flank were injected intravenously with 740 kBq (20 μCi) of [^64Cu]XYIMSR-06 in 200 μL of PBS. For in vivo competition (binding specificity) studies, tumor-bearing mice were injected with 740 kBq (20 μCi) of [^64Cu]XYIMSR-06 and 200 nmole of 1 in 200 μL of PBS concurrently. At specific times after injection (1 h, 4 h, 8 h and 24 h), mice (n = 5) were sacrificed by cervical dislocation with blood immediately collected by cardiac puncture. Heart, lungs, pancreas, spleen, fat, brain, muscle, small intestines, liver, stomach, kidney, urinary bladder, and tumor were also collected. Each organ was weighed and the tissue radioactivity was measured with an automated gamma counter (1282 Compugamma CS, Pharmacia/ LKBNuclear, Inc., Mt. Waverly, Vic. Australia). The percentage of injected dose per gram of tissue (%ID/g) was calculated by comparison with samples of a standard dilution of the initial dose. All measurements were corrected for radioactive decay. Data are expressed as mean ± standard deviation (SD).
# [2] = In vivo metabolism study, plasma radio-TLC; parameters: species or system NSG mice; conditions: for Percentage of intact radiotracer in plasma: 7.4 MBq i.v.
# Protocol: PET acquisition times were: 5 min/bed (1 h) post-injection were developed using a mobile phase consisting of 45% of [Al18F]XYIMSR-04. PET images were co-registered acetonitrile, 55% water and 0.1% trifluoroacetic acid. The with the corresponding 360-slice CT images. Imaging TLC plate was dried and exposed to Kodak Biomax x-ray datasets were reconstructed using the 3D-FORE/2D-OSEM film (Fisher Scientific). Standard solutions had Rf value of iterative algorithm with 2 iterations and 16 subsets, using 0.6. The intensity of bans on the film were calculated with the manufacturer ’s software. Display of images utilized the Image J software (NIH, Bethesda, MD). The percentages Amide software (Dice Holdings, Inc. NY). The 1 h image of intact [64Cu]XYIMSR-06 in plasma were 86.2%, 98.3, is shown below (Supplementary Figure S2): and 100% for 0.5h, 1h, and 2h plasma samples, respectively.
# Metabolism study REFERENCES
# In vivo metabolism of [64Cu]XYIMSR-06 in NSG 1. Wichert M, Krall N, Decurtins W, Franzini RM, Pretto mice intravenously (tail vein) with 7.4 MBq (200 μCi) F, Schneider P, Neri D, Scheuermann J. Dual-display of [64Cu]XYIMSR-06 in 200 µL of PBS (pH = 7.0). One of small molecules enables the discovery of ligand pairs mouse was euthanized at 0.5, 1, and 2hr time points and facilitates affinity maturation. Nature chemistry. plasma was prepared by centrifugation of whole blood 2015;7:241-9. for 15 minutes at 2,500xg at 4°C. 5 uL of the plasma 2. D’Souza CA, McBride WJ, Sharkey RM, Todaro LJ, samples and control (7.4 kBq of [64Cu]XYIMSR-06) were Goldenberg DM. High-yielding aqueous 18F-labeling of spotted onto silica gel 60 RP-18 F254S glass TLC plates peptides via Al18F chelation. Bioconjugate chemistry.
# (EMD Millipore Corp., Billerica, MA) and the plates 2011;22:1793-803. […]
# [3] = 8 h+Block (co-injected 200 nmole of 1)
# [4] = 24 h+Block (co-injected 200 nmole of 1)
# [5] = one phase exponential decay fit
smiles,measurement,setting,value
CC(CCC(=O)NC(CC(=O)NC(CC(=O)NC(CCCCn1cc(CCCC(=O)Nc2nnc(S(N)(=O)=O)s2)nn1)C(=O)NCCOCCOCCNC(=S)Nc1ccc(CC2CN(CC(=O)O)CCN(CC(=O)[O-])CCN2CC(=O)[O-])cc1)C(=O)O)C(=O)O)(c1ccc(O)cc1)c1ccc(O)cc1.[64Cu+2] (stereo not shown) [[^64Cu]XYIMSR-06],Bladder uptake,[1]; 1 h,11.12±6.33 %ID/g
same,Blood uptake,[1]; 1 h,0.66±0.05 %ID/g
same,Brain uptake,[1]; 1 h,1.46±2.23 %ID/g
same,Fat uptake,[1]; 1 h,0.80±0.17 %ID/g
same,Heart uptake,[1]; 1 h,3.41±0.79 %ID/g
same,Kidney (kid) uptake,[1]; 1 h,33.65±3.91 %ID/g
same,Liver uptake,[1]; 1 h,3.25±0.97 %ID/g
same,Lung uptake,[1]; 1 h,25.52±3.35 %ID/g
same,Muscle (mm) uptake,[1]; 1 h,1.28±0.27 %ID/g
same,Pancreas uptake,[1]; 1 h,2.94±0.24 %ID/g
same,Sm. intestine uptake,[1]; 1 h,7.35±0.78 %ID/g
same,Spleen uptake,[1]; 1 h,0.36±0.08 %ID/g
same,Stomach uptake,[1]; 1 h,14.80±2.27 %ID/g
same,Tumor uptake,[1]; 1 h,14.5 %ID/g and 14.47±2.69 %ID/g
same,Tumor/kid (kidney) ratio,[1]; 1 h,0.4±0.1
same,Tumor/mm (muscle) ratio,[1]; 1 h,10.8±3.7
same,Bladder uptake,[1]; 4 h,17.05±8.86 %ID/g
same,Blood uptake,[1]; 4 h,0.33±0.06 %ID/g
same,Brain uptake,[1]; 4 h,0.29±0.06 %ID/g
same,Fat uptake,[1]; 4 h,0.52±0.29 %ID/g
same,Heart uptake,[1]; 4 h,1.78±0.33 %ID/g
same,Kidney (kid) uptake,[1]; 4 h,19.99±2.88 %ID/g
same,Liver uptake,[1]; 4 h,2.18±0.57 %ID/g
same,Lung uptake,[1]; 4 h,12.03±1.61 %ID/g
same,Muscle (mm) uptake,[1]; 4 h,0.70±0.18 %ID/g
same,Pancreas uptake,[1]; 4 h,1.36±0.19 %ID/g
same,Sm. intestine uptake,[1]; 4 h,4.15±0.69 %ID/g
same,Spleen uptake,[1]; 4 h,0.24±0.04 %ID/g
same,Stomach uptake,[1]; 4 h,8.19±0.97 %ID/g
same,Tumor uptake,[1]; 4 h,19.3 %ID/g and 19.31±4.51 %ID/g
same,Tumor/Blood ratio,[1]; 4 h,57.7±9.3
same,Tumor/kid (kidney) ratio,[1]; 4 h,1.0±0.1
same,Tumor/mm (muscle) ratio,[1]; 4 h,29.4±9.9
same,Bladder uptake,[1]; 8 h,7.43±7.72 %ID/g
same,Blood uptake,[1]; 8 h,0.13±0.02 %ID/g
same,Brain uptake,[1]; 8 h,0.24±0.06 %ID/g
same,Fat uptake,[1]; 8 h,0.28±0.27 %ID/g
same,Heart uptake,[1]; 8 h,0.65±0.10 %ID/g
same,Kidney (kid) uptake,[1]; 8 h,8.14±1.15 %ID/g
same,Liver uptake,[1]; 8 h,0.99±0.22 %ID/g
same,Lung uptake,[1]; 8 h,4.64±0.58 %ID/g
same,Muscle (mm) uptake,[1]; 8 h,0.21±0.05 %ID/g
same,Pancreas uptake,[1]; 8 h,0.47±0.21 %ID/g
same,Sm. intestine uptake,[1]; 8 h,1.98±0.14 %ID/g
same,Spleen uptake,[1]; 8 h,0.18±0.02 %ID/g
same,Stomach uptake,[1]; 8 h,4.02±0.53 %ID/g
same,Tumor uptake,[1]; 8 h,16.74±1.58 %ID/g
same,Tumor/Blood ratio,[1]; 8 h,129.6±18.8
same,Tumor/kid (kidney) ratio,[1]; 8 h,2.1 and 2.1 ± 0.3 and 2.1±0.26
same,Tumor/mm (muscle) ratio,[1]; 8 h,84.3±21.0
same,Bladder uptake,[1]; [3],1.45±1.53 %ID/g
same,Blood uptake,[1]; [3],0.08±0.01 %ID/g
same,Brain uptake,[1]; [3],0.04±0.01 %ID/g
same,Fat uptake,[1]; [3],0.05±0.01 %ID/g
same,Heart uptake,[1]; [3],0.16±0.03 %ID/g
same,Kidney (kid) uptake,[1]; [3],1.82±0.39 %ID/g
same,Liver uptake,[1]; [3],0.55±0.08 %ID/g
same,Lung uptake,[1]; [3],0.77±0.14 %ID/g
same,Muscle (mm) uptake,[1]; [3],0.05±0.02 %ID/g
same,Pancreas uptake,[1]; [3],0.14±0.03 %ID/g
same,Sm. intestine uptake,[1]; [3],0.38±0.06 %ID/g
same,Spleen uptake,[1]; [3],0.14±0.02 %ID/g
same,Stomach uptake,[1]; [3],0.69±0.18 %ID/g
same,Tumor uptake,[1]; [3],2.39±0.24 %ID/g
same,Tumor/Blood ratio,[1]; [3],32.0±3.8
same,Tumor/kid (kidney) ratio,[1]; [3],1.3±10.2
same,Tumor/mm (muscle) ratio,[1]; [3],53.0±12.6
same,Effect of co-injection of 200 nmole of 1 on tumor uptake (binding specificity),[1]; 8 h and 24 h,blocked tumor uptake
same,All other tumor-to-organ ratios tested (other than kidney and lung),[1]; 24 h,≥ 10
same,Bladder uptake,[1]; 24 h,0.34±0.09 %ID/g
same,Brain uptake,[1]; 24 h,0.13±0.02 %ID/g
same,Fat uptake,[1]; 24 h,0.03±0.01 %ID/g
same,Heart uptake,[1]; 24 h,0.12±0.03 %ID/g
same,Kidney (kid) uptake,[1]; 24 h,0.90±0.12 %ID/g
same,Liver uptake,[1]; 24 h,0.38±0.03 %ID/g
same,Lung uptake,[1]; 24 h,1.27±0.38 %ID/g
same,Muscle (mm) uptake,[1]; 24 h,0.02±0.01 %ID/g
same,Pancreas uptake,[1]; 24 h,0.21±0.29 %ID/g
same,Sm. intestine uptake,[1]; 24 h,0.47±0.03 %ID/g
same,Spleen uptake,[1]; 24 h,0.09±0.01 %ID/g
same,Stomach uptake,[1]; 24 h,0.65±0.04 %ID/g
same,Tumor uptake,[1]; 24 h,6.2 %ID/g and 6.23±1.41 %ID/g
same,Tumor-to-lung ratio,[1]; 24 h,4.9
same,Tumor/Blood ratio,[1]; 24 h,142.6±115.8
same,Tumor/kid (kidney) ratio,[1]; 24 h,7.1 and 7.1±2.5
same,Bladder uptake,[1]; [4],0.45±0.50 %ID/g
same,Blood uptake,[1]; [4],0.01±0.08 %ID/g
same,Brain uptake,[1]; [4],0.02±0.01 %ID/g
same,Fat uptake,[1]; [4],0.01±0.01 %ID/g
same,Heart uptake,[1]; [4],0.08±0.01 %ID/g
same,Kidney (kid) uptake,[1]; [4],0.48±0.09 %ID/g
same,Liver uptake,[1]; [4],0.42±0.04 %ID/g
same,Lung uptake,[1]; [4],0.29±0.05 %ID/g
same,Muscle (mm) uptake,[1]; [4],0.04±0.06 %ID/g
same,Pancreas uptake,[1]; [4],0.07±0.02 %ID/g
same,Sm. intestine uptake,[1]; [4],0.19±0.05 %ID/g
same,Spleen uptake,[1]; [4],0.11±0.04 %ID/g
same,Stomach uptake,[1]; [4],0.29±0.04 %ID/g
same,Tumor uptake,[1]; [4],1.20±0.47 %ID/g
same,Tumor/Blood ratio,[1]; [4],27.1±26.7
same,Tumor/kid (kidney) ratio,[1]; [4],2.4±0.4
same,Tumor/mm (muscle) ratio,[1]; [4],49.0±28.7
same,"Calculated half-life, Bladder",[1]; [5],116.2 h
same,"Calculated half-life, Blood",[1]; [5],2.153 h
same,"Calculated half-life, Brain",[1]; [5],51.6 min
same,"Calculated half-life, Fat",[1]; [5],4.666 h
same,"Calculated half-life, Heart",[1]; [5],2.293 h
same,"Calculated half-life, Kidney",[1]; [5],3.591 h
same,"Calculated half-life, Liver",[1]; [5],3.375 h
same,"Calculated half-life, Lung",[1]; [5],2.542 h
same,"Calculated half-life, Muscle",[1]; [5],3.035 h
same,"Calculated half-life, Pancreas",[1]; [5],2.330 h
same,"Calculated half-life, SK-RC-52 tumor",[1]; [5],41.5 days
same,"Calculated half-life, Small intestine",[1]; [5],3.322 h
same,"Calculated half-life, Spleen",[1]; [5],4.008 h
same,"Calculated half-life, Stomach",[1]; [5],3.397 h
same,Radiotracer uptake within liver,[1]; within 24 h,no significant radiotracer uptake within liver
same,Percentage of intact radiotracer in plasma,[2]; 0.5h plasma sample,86.2%
same,Percentage of intact radiotracer in plasma,[2]; 1h plasma sample,98.3%
same,Percentage of intact radiotracer in plasma,[2]; 2h plasma sample,100%
same,In vivo stability by blood metabolites (radio thin layer chromatography),[2]; post-injection,stable up to 2 h post-injection
